Source: patent US7741361B2, “Glucocorticoid mimetics, methods of making them, pharmaceutical compositions, and uses thereof” (Boehringer Ingelheim Pharmaceuticals, Inc., priority 2004, dated 2010)

tested on: glucocorticoid receptor; experiment: Glucocorticoid receptor cell assays (agonist activity in one or more of the above assays); assay type: cell-based; conditions: assay not specified
Method: B. Glucocorticoid Receptor Cell Assays
1. Induction of Aromatase in Fibroblasts (Cell Assay for Transactivation)
Dexamethasone, a synthetic ligand to the glucocorticoid receptor (GR), induces expression of aromatase in human foreskin fibroblast cells. The activity of aromatase is measured by the conversion of testosterone to estradiol in culture media.
Human foreskin fibroblast cells (ATCC Cat. No. CRL-2429, designation CCD112SK) are plated on 96 well plates at 50,000 cells per well 5 days before use, in Iscove's Modified Dulbecco's Media (GibcoBRL Life Technologies Cat No. 12440-053) supplemented with 10% charcoal filtered FBS (Clonetech Cat No. SH30068) and Gentamycin (GibcoBRL Life Technologies Cat. No. 15710-064). On the day of the experiment, the media in the wells is replaced with fresh media. Cells are treated with test compounds to final concentrations of 10^−5 M to 10^−8 M, and testosterone to a final concentration of 300 ng/mL. Each well has a total volume of 100 μL. Samples are made in duplicates. Control wells include: (a) wells that receive testosterone only, and (b) wells that receive testosterone plus 2 μM of dexamethasone to provide maximum induction of aromatase. Plates are incubated at 37° C. overnight (15 to 18 hours), and supernatants are harvested at the end of incubation. Estradiol in the supernatant is measured using ELISA kits for estradiol (made by ALPCO, obtained from American Laboratory Products Cat. No. 020-DR-2693) according to the manufacture's instruction. The amount of estradiol is inversely proportional to the ELISA signals in each well. The extent of aromatase induction by test compounds is expressed as a relative percentage to dexamethasone. EC50 values of test compounds are derived by non-linear curve fitting.
2. Inhibition of IL-6 Production in Fibroblasts (Cell Assay for Transrepression)
Human foreskin fibroblast cells produce IL-6 in response to stimulation by pro-inflammatory cytokine IL-1.
Human foreskin fibroblast cells (ATCC Cat. No. CRL-2429) are plated on 96 well plates at 5,000 cells per well the day before use, in Iscove's Modified Dulbecco's Media (GibcoBRL Life Technologies Cat. No. 12440-053) supplemented with 10% charcoal filtered FBS (Clonetech Cat. No. SH30068) and Gentamycin (GibcoBRL Life Technologies Cat. No. 15710-064). On the next day, media in the wells is replaced with fresh media. […] IL-6 levels in the supernatants are determined by the ELISA kits for IL-6 (MedSystems Diagnostics GmbH, Vienna, Austria, Cat. No. BMS213TEN) according to manufacture's instructions. […]
Evaluation of agonist or antagonist activity of compounds binding to the glucocorticoid receptor may be determined by any of the assays. […]

Structure (SMILES) | activity as an agonist of the glucocorticoid receptor function
Nc1cc(Cl)cc(Cl)c1S(=O)(=O)NC(Cc1c[nH]c2ccccc12)C(F)(F)F (stereo not shown) [2-Amino-4,6-dichloro-N-[2,2,2-trifluoro-1-(1H-indol-3-ylmethyl)ethyl]benzenesulfonamide] | activity as an agonist
Cc1cc(C)c(S(=O)(=O)NC(Cc2c[nH]c3ccccc23)C(F)(F)F)c(C)c1 (stereo not shown) [2,4,6-Trimethyl-N-[2,2,2-trifluoro-1-(1H-indol-3-ylmethyl)ethyl]benzenesulfonamide] | activity as an agonist
Cc1cc(C)c(S(=O)(=O)NC(Cc2c[nH]c3ccc(C)cc23)C(F)(F)F)c(C)c1 (stereo not shown) [2,4,6-Trimethyl-N-[2,2,2-trifluoro-1-(5-methyl-1H-indol-3-ylmethyl)ethyl]benzenesulfonamide] | activity as an agonist
Cc1ccc2[nH]cc(CC(NS(=O)(=O)c3c(N)cc(Cl)cc3Cl)C(F)(F)F)c2c1 (stereo not shown) [2-Amino-4,6-dichloro-N-[2,2,2-trifluoro-1-(5-methyl-1H-indol-3-ylmethyl)ethyl]benzenesulfonamide] | activity as an agonist
